In ChEMBL document CHEMBL1201862, “PubChem BioAssay data set” (2004):
Calls of active or inactive are those of the source.

Legend:
Estrogen receptor = target: T1, Estrogen receptor (Homo sapiens, UniProt P03372);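 also: potency for inhibiting coactivator peptide recruitment to the receptor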
T1 sequence (P03372 whole entry): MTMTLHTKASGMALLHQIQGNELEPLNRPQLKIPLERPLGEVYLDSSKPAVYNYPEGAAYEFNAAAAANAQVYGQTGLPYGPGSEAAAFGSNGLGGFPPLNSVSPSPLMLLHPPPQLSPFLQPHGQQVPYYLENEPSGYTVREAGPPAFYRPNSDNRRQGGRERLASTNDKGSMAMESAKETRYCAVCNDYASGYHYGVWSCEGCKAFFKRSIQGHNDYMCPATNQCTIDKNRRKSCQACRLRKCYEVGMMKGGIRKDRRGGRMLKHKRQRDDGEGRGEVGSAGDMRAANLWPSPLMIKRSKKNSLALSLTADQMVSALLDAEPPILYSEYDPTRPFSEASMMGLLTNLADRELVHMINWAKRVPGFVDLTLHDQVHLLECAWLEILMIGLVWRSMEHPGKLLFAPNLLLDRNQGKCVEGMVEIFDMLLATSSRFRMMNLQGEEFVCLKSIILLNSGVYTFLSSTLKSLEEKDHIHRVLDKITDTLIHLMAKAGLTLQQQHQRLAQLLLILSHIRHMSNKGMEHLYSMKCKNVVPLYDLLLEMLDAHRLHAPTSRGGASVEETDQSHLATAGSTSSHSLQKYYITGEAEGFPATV

Estrogen receptor beta [1] = target: T2, Estrogen receptor beta (Homo sapiens, UniProt Q92731);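 also: recombinant ER-beta bound to coactivator SRC1 peptide in presence of estradiol agonist; inhibitors block coactivator peptide binding and lower the FRET signal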
T2 sequence (Q92731 whole entry): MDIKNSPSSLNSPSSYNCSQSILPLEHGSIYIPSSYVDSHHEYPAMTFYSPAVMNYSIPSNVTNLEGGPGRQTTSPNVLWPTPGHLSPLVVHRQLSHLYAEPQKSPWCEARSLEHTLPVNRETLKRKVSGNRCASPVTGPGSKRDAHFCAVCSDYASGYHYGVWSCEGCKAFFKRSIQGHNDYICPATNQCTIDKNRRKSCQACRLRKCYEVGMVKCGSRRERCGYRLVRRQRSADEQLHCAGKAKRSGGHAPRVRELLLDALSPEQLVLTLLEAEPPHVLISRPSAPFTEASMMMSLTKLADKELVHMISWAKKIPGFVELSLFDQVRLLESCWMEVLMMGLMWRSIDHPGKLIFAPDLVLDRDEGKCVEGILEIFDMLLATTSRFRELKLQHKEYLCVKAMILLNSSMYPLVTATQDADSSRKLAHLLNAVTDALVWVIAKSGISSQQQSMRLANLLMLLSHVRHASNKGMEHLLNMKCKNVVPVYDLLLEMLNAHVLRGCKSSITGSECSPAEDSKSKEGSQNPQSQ

Estrogen receptor beta [2] = target: T2, Estrogen receptor beta; experiment: ERβ–SRC-3 coactivator interaction inhibitors, confirmation, orthogonal assay, biochemical, ELISA, streptavidin-HRP readout (AID 1060)
[3] = A Cell Based Secondary Assay To Explore Cytotoxicity of Compounds that Sensitize Mycobacterium Tuberculosis to Beta-Lactam Antibiotics.; type: functional
[4] = target: NAD-dependent protein deacylase sirtuin-5, mitochondrial (Homo sapiens, UniProt Q9NXA8); experiment: SIRT5 desuccinylase inhibitors, dose response, biochemical, fluorescence imaging, cherry-pick, set 5 (AID 720591);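 also: desuccinylation of succinyl peptide AMC substrate read as fluorescence after trypsin release; potency of inhibitors that lower fluorescence and may act on trypsin instead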
Chain of NAD-dependent protein deacylase sirtuin-5, mitochondrial (Q9NXA8 whole entry): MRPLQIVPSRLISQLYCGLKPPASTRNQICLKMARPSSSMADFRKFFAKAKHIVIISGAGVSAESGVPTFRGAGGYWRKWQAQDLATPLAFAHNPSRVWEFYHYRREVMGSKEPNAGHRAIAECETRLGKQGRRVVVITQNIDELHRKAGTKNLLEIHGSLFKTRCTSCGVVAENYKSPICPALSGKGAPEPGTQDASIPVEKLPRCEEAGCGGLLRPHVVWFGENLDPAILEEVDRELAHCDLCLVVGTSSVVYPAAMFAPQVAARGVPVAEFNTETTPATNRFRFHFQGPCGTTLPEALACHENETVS

[5] = target: T3, Mannose-6-phosphate isomerase (Homo sapiens, UniProt P34949); experiment: human PMI inhibitors, high substrate, primary screen, biochemical, fluorescence intensity, high mannose 6-phosphate (AID 1220)
T3 sequence (P34949 whole entry): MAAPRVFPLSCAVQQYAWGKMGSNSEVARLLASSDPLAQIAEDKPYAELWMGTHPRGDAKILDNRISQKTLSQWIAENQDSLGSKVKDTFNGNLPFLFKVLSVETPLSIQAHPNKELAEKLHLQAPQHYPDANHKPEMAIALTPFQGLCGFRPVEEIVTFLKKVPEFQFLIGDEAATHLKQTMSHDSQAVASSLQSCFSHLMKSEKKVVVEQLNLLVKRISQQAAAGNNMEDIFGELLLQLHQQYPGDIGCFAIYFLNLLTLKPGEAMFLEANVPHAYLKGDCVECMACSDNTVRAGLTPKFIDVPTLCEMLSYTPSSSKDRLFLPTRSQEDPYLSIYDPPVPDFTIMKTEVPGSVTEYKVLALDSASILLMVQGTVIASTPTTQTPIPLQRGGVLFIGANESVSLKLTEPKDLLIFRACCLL

[6] = target: Dual specificity tyrosine-phosphorylation-regulated kinase 1A (Rattus norvegicus, UniProt Q63470); type: biochemical, Homo sapiens
[7] = target: T4, Methionyl-tRNA synthetase, putative (Trypanosoma brucei brucei, UniProt Q38C91); type: functional, Trypanosoma brucei brucei strain 927/4 GUTat10.1
T4 sequence (Q38C91 whole entry): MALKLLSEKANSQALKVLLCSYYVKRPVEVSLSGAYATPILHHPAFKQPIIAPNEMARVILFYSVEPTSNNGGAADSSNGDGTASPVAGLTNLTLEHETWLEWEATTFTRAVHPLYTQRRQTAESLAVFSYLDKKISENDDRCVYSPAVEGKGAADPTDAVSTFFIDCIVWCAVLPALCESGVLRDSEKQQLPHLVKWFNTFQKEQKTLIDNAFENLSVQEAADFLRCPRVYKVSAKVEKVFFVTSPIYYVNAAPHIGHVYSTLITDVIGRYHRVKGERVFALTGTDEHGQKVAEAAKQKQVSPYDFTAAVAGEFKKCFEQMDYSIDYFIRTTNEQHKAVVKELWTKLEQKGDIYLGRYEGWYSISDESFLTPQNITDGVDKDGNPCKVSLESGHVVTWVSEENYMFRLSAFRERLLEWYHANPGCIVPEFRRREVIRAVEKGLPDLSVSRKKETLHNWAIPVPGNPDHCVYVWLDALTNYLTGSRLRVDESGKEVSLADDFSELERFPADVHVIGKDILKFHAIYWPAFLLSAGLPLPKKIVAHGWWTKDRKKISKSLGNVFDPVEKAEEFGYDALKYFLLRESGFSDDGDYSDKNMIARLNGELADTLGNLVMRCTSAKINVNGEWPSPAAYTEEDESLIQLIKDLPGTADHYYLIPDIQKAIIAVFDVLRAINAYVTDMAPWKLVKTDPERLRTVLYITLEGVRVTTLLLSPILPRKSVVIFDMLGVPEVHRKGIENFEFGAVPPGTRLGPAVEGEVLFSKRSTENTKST

[8] = Luminescence Cell-Based Dose Response HTS to Identify Activators of Luciferase Translation or Activity in H4 […] Cells. [Related pubchem assays: 1829 (Project Summary), 1814 (Primary HTS)]; type: functional
H4 = experiment: Luminescence Cell-Based Dose Response HTS to Identify Activators of 5'UTR Stem-Loop Driven Prion Protein mRNA Translation in H4 Neuroglioblastoma Cells. [Related pubchem assays: 1829 (Project Summary), 1814 (Primary HTS)]; type: functional; conditions: Homo sapiens
[9] = target: Protein-tyrosine kinase 2-beta (Homo sapiens, UniProt Q14289);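 also: potency of inhibitors of PYK2 kinase phosphorylation of poly-GT substrate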
Chain of Protein-tyrosine kinase 2-beta (Q14289 whole entry): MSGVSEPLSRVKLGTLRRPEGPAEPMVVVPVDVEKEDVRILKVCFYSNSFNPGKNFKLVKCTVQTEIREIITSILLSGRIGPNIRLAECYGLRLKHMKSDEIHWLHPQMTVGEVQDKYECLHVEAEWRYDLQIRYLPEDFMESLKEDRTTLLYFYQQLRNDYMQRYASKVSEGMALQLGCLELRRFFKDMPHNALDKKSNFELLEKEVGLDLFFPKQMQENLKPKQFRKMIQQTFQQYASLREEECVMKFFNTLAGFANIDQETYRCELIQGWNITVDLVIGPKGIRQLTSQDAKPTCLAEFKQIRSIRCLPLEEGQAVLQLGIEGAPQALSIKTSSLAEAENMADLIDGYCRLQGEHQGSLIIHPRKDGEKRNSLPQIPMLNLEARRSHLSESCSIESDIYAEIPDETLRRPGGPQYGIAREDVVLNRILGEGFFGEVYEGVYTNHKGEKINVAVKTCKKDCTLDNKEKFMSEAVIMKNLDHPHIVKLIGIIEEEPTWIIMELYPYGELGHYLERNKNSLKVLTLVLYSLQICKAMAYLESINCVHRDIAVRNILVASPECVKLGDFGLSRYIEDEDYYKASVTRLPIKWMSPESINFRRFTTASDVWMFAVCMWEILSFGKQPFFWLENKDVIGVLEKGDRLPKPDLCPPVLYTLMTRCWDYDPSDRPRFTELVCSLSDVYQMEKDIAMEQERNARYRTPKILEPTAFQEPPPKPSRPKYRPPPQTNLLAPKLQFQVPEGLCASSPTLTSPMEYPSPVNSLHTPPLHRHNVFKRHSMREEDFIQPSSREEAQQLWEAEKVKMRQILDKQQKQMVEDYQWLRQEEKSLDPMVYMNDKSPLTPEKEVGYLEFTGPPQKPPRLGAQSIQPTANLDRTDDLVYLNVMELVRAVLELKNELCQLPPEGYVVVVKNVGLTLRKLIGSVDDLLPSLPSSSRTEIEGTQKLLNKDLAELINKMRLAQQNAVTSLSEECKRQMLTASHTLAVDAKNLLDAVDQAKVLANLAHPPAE

[10] = Luminescence Cell-Based Dose Confirmation HTS to Identify Activators of 5'UTR Stem-Loop Driven Alpha-Synuclein mRNA Translation in H4 Neuroglioblastoma Cells. [Related pubchem assays: 1829 (Project Summary), 1814 (Primary HTS)]; type: functional
[11] = Counterscreen for inhibitors of Trypanosoma brucei methionyl tRNA synthetase (MetRS): Luminescence-based cell-based high throughput dose response assay to identify compounds that are cytotoxic to Jurkat human T lymphocyte cells.; type: functional
[12] = target: T4, Methionyl-tRNA synthetase, putative; type: functional, Trypanosoma brucei brucei strain 927/4 GUTat10.1; remark: listed apart in the source
[13] = inhibitors of Vif binding to APOBEC3G peptide, primary screen, biochemical, TR-FRET, GST-Vif 1-94, biotin-A3G peptide, dose response retest (AID 1117319); type: functional;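 also: TR-FRET signal of purified GST-Vif binding a biotinylated A3G peptide; inhibitors lower the FRET signal by blocking Vif and A3G binding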
Cytochrome P450 2C9 = Cytochrome P450 2C9 (Homo sapiens, UniProt P11712); conditions: Potency
Chain of Cytochrome P450 2C9 (P11712 whole entry): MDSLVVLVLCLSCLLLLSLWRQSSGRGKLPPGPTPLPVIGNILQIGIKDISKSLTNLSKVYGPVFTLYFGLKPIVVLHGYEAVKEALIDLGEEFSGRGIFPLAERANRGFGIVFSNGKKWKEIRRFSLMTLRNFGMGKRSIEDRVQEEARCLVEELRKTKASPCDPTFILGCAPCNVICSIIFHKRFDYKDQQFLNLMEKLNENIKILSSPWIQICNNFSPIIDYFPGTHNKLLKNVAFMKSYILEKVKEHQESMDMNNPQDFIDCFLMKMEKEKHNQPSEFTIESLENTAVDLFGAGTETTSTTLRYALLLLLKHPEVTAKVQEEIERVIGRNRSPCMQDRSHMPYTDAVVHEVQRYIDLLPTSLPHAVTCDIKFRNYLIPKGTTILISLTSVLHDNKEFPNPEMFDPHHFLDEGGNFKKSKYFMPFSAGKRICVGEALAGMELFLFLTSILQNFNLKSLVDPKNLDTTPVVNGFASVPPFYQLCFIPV

Caspase-6 = target: T5, Caspase-6 (Homo sapiens, UniProt P55212); experiment: human caspase-6 inhibitors, dose response, biochemical, VEID-R110 fluorescence, cherry-pick (AID 720632)
T5 sequence (P55212 whole entry): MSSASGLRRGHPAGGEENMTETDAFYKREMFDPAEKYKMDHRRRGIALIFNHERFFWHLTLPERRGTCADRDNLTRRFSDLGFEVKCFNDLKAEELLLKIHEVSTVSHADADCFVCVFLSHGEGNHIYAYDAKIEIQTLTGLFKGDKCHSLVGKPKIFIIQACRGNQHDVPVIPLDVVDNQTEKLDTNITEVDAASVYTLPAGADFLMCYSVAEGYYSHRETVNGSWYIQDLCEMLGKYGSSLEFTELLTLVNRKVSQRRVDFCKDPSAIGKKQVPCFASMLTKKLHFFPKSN

[14] = target: FAD-linked sulfhydryl oxidase ALR (Homo sapiens, UniProt P55789); experiment: inhibitors of human ALR sulfhydryl oxidase, dose response, biochemical, H2O2 detection, luminescence, cherry-pick (AID 493248)
Chain of FAD-linked sulfhydryl oxidase ALR (P55789 whole entry, the tested form may be a part): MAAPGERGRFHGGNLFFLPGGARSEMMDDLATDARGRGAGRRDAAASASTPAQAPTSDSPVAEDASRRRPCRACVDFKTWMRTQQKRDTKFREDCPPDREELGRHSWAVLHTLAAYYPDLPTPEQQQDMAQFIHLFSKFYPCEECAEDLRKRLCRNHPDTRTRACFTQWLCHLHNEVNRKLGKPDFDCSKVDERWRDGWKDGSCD

[15] = target: T6, Carboxy-terminal domain RNA polymerase II polypeptide A small phosphatase 1 (Homo sapiens, UniProt Q9GZU7); experiment: inhibitors of CTDSP1, concentration-response testing, biochemical assay, absorbance-based, actives from ultra-high-throughput screening (AID 540297); type: functional
T6 sequence (Q9GZU7 whole entry): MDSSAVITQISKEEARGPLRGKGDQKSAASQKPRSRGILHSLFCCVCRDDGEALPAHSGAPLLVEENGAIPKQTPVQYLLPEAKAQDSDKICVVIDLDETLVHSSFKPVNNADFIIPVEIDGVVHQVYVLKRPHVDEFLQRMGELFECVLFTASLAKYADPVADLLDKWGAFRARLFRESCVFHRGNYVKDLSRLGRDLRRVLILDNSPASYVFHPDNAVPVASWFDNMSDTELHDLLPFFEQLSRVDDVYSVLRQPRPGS

[16] = inhibitors of PGC1a acetylation in cells, dose response, cell-based, cherry-picked samples (AID 720514); type: functional;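 also: potency may reflect raised or lowered acetylation signal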
[17] = target: T7, RNA-binding protein pos-1 (Caenorhabditis elegans, UniProt G5EF15); experiment: inhibitors of POS-1/mex-3 RNA binding, dose response, biochemical, fluorescence polarization (AID 1964);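 also: purified POS-1 fused to maltose binding protein made in E. coli; potency of compounds blocking POS-1 binding to fluorescent RNA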
T7 sequence (G5EF15 whole entry): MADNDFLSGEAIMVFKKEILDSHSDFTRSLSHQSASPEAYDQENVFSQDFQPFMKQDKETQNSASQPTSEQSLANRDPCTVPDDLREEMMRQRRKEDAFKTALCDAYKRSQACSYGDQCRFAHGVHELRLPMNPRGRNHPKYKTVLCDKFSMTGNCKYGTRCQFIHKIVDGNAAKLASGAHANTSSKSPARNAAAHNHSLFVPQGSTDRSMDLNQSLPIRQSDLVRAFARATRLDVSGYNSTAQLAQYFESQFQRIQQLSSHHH

Nonstructural protein 1 = Nonstructural protein 1 (Influenza A virus, UniProt Q194T2); type: functional, Influenza A virus (A/California/07/2009(H1N1))
Chain of Nonstructural protein 1 (Q194T2 whole entry): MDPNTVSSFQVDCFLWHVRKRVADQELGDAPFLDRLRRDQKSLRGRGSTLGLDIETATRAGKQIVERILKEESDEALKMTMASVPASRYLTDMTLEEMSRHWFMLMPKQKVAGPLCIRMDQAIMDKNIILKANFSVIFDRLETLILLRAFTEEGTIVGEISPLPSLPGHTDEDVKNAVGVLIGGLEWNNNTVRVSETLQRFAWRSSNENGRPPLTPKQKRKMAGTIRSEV

Genome polyprotein = Genome polyprotein (dengue virus type 2, UniProt P29990); experiment: Dengue-2 NS5 methyltransferase inhibitors, primary screen, biochemical, confirmation dose response (AID 588689); type: functional
Chain of Genome polyprotein (P29990 2492-3391 limits assumed): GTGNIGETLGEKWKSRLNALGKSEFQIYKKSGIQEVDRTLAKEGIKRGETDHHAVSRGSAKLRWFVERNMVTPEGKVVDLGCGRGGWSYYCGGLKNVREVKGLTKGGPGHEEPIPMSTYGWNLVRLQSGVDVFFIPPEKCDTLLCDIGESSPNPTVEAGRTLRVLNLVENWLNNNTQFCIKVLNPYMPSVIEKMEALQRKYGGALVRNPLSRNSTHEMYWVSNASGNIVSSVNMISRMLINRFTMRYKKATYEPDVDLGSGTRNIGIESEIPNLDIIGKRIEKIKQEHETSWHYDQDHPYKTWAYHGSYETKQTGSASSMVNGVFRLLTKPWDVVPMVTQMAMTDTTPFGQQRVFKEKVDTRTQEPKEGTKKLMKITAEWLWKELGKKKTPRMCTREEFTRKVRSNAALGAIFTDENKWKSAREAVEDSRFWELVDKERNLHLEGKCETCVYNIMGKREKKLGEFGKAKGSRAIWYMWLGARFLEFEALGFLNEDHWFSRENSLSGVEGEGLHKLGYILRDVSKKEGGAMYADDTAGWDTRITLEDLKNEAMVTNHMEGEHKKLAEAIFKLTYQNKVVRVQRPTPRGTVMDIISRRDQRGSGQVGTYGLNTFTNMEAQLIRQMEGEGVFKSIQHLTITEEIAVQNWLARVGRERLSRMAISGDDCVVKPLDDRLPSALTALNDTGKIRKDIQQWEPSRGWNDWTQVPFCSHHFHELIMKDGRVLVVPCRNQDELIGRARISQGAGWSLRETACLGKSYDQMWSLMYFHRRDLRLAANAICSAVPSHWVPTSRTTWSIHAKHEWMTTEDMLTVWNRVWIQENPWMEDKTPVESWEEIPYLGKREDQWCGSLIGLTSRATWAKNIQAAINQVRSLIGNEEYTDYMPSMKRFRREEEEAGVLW

[18] = HepG2 cell cytotoxicity, dose response, cytotoxicity control for Shn3 inhibitor project, CellTiter-Glo, cherry-picked (AID 624134); type: functional, cell-based
[19] = Shn3 3'UTR reporter inhibitors, dose response, cell-based, Clone20 osteoblasts, firefly luciferase, cherry-picked (AID 624132); type: functional;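 also: firefly luciferase luminescence from reporter carrying the Shn3 3'UTR in osteoblasts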
[20] = Luminescence Cell-Based Dose Response HTS to Identify Inhibitors of 5'UTR Stem-Loop Driven Prion Protein mRNA Translation in H4 Neuroglioblastoma Cells. [Related pubchem assays: 1827 (Project Summary), 1813 (Primary HTS)]; type: functional
[21] = inhibitors of SNCA 5'UTR-driven reporter translation, confirmation, H4 neuroglioma cells, luminescence (AID 1988); type: functional, cell-based
[22] = inhibitors of firefly luciferase expression or activity, dose response, H4 neuroglioma cells, luminescence (AID 1990); type: functional, cell-based
[23] = NIH-3T3 fibroblast cytotoxicity, dose response, cytotoxicity control, cell-based, fluorescence, Alamar Blue, secondary assay (AID 2327); type: functional;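 also: NIH-3T3 mouse fibroblasts cultured with fluconazole at 8 µg/mL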
[24] = C. albicans growth with fluconazole, confirmation, fluorescence, retest (AID 2467); type: functional, cell-based

O=C(COC(=O)c1cccc(S(=O)(=O)N2CCc3ccccc3C2)c1)NCc1ccco1
IC50 (Estrogen receptor): 25 µM (active) | IC50 (Estrogen receptor beta [1]): > 50 µM (not active) | IC50 (Estrogen receptor beta [2]): 0.0242 µM (not active)

CCC(C)C(NC(N)=O)C(=O)Nc1ccc(OCc2ccccc2)cc1 (configuration not stated)
CC50 [3]: > 40 µM (active)

O=C(O)c1ccc(Nc2nc(-c3ccccc3)nc3ccccc23)cc1
AC50 [4]: 17.9 µM (active)

Cc1cc(C)[n+]2ncn(C)c2n1
IC50 [5]: > 50 µM (not active)

c1ccc2c3c([nH]c2c1)-c1n[nH]cc1CC3
AC50 [6]: 3.79 µM (active) | IC50 [7]: 52.1 µM (inactive) | EC50 [8]: 18.7 µM (active) | EC50 (H4): > 120 µM (not active) | IC50 [9]: 10.5 µM (not active) | EC50 [10]: > 120 µM (not active) | IC50 [11]: 83.4 µM (inactive) | IC50 [12]: 26.7 µM (inactive)

COc1cc(/C=C(\C#N)c2nc3ccccc3[nH]2)c([N+](=O)[O-])cc1OCc1ccccc1
IC50 [13]: > 100 µM (active)

CC(C)[C@@]1(NC(=O)[C@@H]2C=C3c4cccc5[nH]cc(c45)C[C@@H]3N(C)C2)O[C@]2(O)[C@H]3CCCN3C(=O)[C@H](Cc3ccccc3)N2C1=O
AC50 (Cytochrome P450 2C9): 10 µM (inconclusive)

COc1ccc(CNc2cc(NCCCO)c([N+](=O)[O-])c3nonc23)cc1
IC50 [5]: > 50 µM (not active)

Cc1cc(SCC(=O)c2ccccc2)n2ncc(-c3ccccc3)c2n1
CC50 [3]: 25.8 µM (active)

COc1ccc(-c2ccc3c(N)c(C(=O)c4ccc(OC)c(OC)c4)sc3n2)cc1
IC50 [9]: 4.28 µM (active)

COc1ccc(NS(=O)(=O)c2cccc(C(=O)N3CCCC(C)C3)c2)cc1 (configuration not stated)
AC50 [4]: 28.4 µM (active)

CC(C(=O)Nc1ccc(S(=O)(=O)N2CCOCC2)cc1)N1CCN(c2ccccn2)CC1 (configuration not stated)
AC50 [4]: > 30 µM (inactive)

C=CCC1C=CC(Oc2ccc(F)cc2C)C(CO)O1 (configuration not stated)
AC50 (Cytochrome P450 2C9): 3.98 µM (inconclusive)

CSc1ccc(NC(=O)Nc2ccc(C(=O)NCC(=O)O)cc2)cc1
AC50 (Caspase-6): 18.4 µM (active) | AC50 [14]: 2.47 µM (active) | IC50 [15]: 3.17 µM (active)

COc1ccc(-n2c(SCC#N)nnc2-c2cccnc2)cc1
AC50 [16]: 16.7 µM (active)

C[C@H]1CN([C@@H](C)CO)S(=O)(=O)c2ccc(-c3ccccc3)cc2O[C@@H]1CN(C)Cc1cccc(F)c1
AC50 [16]: 7.93 µM (active)

Oc1ccc(/C=N/Nc2ccc(Cl)nn2)c(O)c1O
AC50 (Caspase-6): 1.1 µM (active) | EC50 [17]: 50 µM (inconclusive) | IC50 (Nonstructural protein 1): 2.08 µM (active) | IC50 (Genome polyprotein): 16.4 µM (active)

c1ccc(Nc2ccccn2)cc1
IC50 [13]: > 100 µM (active)

CC(C)CC(NC(=O)c1ccc(Cl)cc1)C(=O)OCC(=O)c1ccc2c(c1)NC(=O)CO2 (configuration not stated)
AC50 [18]: 15.5 µM (active) | AC50 [19]: 4.01 µM (active) | EC50 [20]: 2.69 µM (active) | EC50 [21]: 4.38 µM (active) | AC50 [16]: 6.45 µM (active) | EC50 [22]: 6.2 µM (active)

CC(=O)c1c(C)[nH]c(C(=O)Nc2ccc(C)c(C)c2)c1C
EC50 [23]: 72.3 µM (active) | EC50 [24]: > 38 µM (not active) | IC50 [13]: > 100 µM (active)

CCN(CC)c1ccc(C(=O)n2cnc3ccccc32)cc1
CC50 [3]: > 40 µM (active)
